From PubChem BioAssay AID1845208 (Molecular Pharmacology Branch, DTP, NCI, 2023)
Where “and” joins values, the source holds several entries; their conditions need not be identical. Equal entries are not always repeated.

Test system: NCI-H196 SCLC complex tumor spheroid viability
Assay: Anticancer human tumor NCI-H196 cell line growth inhibition;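 further: spheroids exposed to compounds for 7 days before readout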;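 on viability, T/C: 100% = DMSO vehicle control wells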
Conditions: for viability, T/C: stronger effect = lower value
In short: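 Complex tumor spheroids combined malignant cells with endothelial cells and mesenchymal stem cells. DNA-damaging drugs and DNA repair inhibitors were tested alone and in combination, at half-log dilutions down from clinical Cmax (top 10 microM if Cmax unknown), 0.25% DMSO final.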

[1] = curve of first compound, second compound 0.003 µM
[2] = second compound 0.003 µM, first compound 0.0316 µM
[3] = second compound 0.003 µM, first compound 0.1 µM
[4] = second compound 0.003 µM, first compound 0.316 µM
[5] = second compound 0.003 µM, first compound 1 µM
[6] = second compound 0.003 µM, first compound 3.16 µM
[7] = second compound 0.003 µM, first compound 10 µM

[2H]c1nc(C)nc([2H])c1-c1cc(NC[C@@H](C)c2cccc3c(C(=O)NC)ccnc23)ncn1 + COc1cc2c(cc1O)CCNC21CSC2c3c(OC(C)=O)c(C)c4c(c3C(COC1=O)N1C(O)C3Cc5cc(C)c(OC)c(O)c5C(C21)N3C)OCO4
IC50 (curve of first compound, second compound 30 pM): > 10 µM
IC50 (curve of first compound, second compound 94.9 pM): > 10 µM
IC50 (curve of first compound, second compound 0.0003 µM): > 10 µM
IC50 (curve of first compound, second compound 0.000949 µM): > 10 µM
IC50 [1]: < 0.0316 µM
viability, T/C (second compound 30 pM, first compound 0.0316 µM): 102%
viability, T/C (second compound 30 pM, first compound 0.1 µM): 102%
viability, T/C (second compound 30 pM, first compound 0.316 µM): 101%
viability, T/C (second compound 30 pM, first compound 1 µM): 104%
viability, T/C (second compound 30 pM, first compound 3.16 µM): 99.4%
viability, T/C (second compound 30 pM, first compound 10 µM): 97.6%
viability, T/C (second compound 94.9 pM, first compound 0.0316 µM): 105%
viability, T/C (second compound 94.9 pM, first compound 0.1 µM): 108%
viability, T/C (second compound 94.9 pM, first compound 0.316 µM): 101%
viability, T/C (second compound 94.9 pM, first compound 1 µM): 106%
viability, T/C (second compound 94.9 pM, first compound 3.16 µM): 97.8%
viability, T/C (second compound 94.9 pM, first compound 10 µM): 104%
viability, T/C (second compound 0.0003 µM, first compound 0.0316 µM): 102%
viability, T/C (second compound 0.0003 µM, first compound 0.1 µM): 106%
viability, T/C (second compound 0.0003 µM, first compound 0.316 µM): 106%
viability, T/C (second compound 0.0003 µM, first compound 1 µM): 105%
viability, T/C (second compound 0.0003 µM, first compound 3.16 µM): 104%
viability, T/C (second compound 0.0003 µM, first compound 10 µM): 105%
viability, T/C (second compound 0.000949 µM, first compound 0.0316 µM): 92.5%
viability, T/C (second compound 0.000949 µM, first compound 0.1 µM): 86%
viability, T/C (second compound 0.000949 µM, first compound 0.316 µM): 88.2%
viability, T/C (second compound 0.000949 µM, first compound 1 µM): 83.5%
viability, T/C (second compound 0.000949 µM, first compound 3.16 µM): 83.4%
viability, T/C (second compound 0.000949 µM, first compound 10 µM): 93.7%
viability, T/C [2]: 5.55%
viability, T/C [3]: 6.42%
viability, T/C [4]: 3.96%
viability, T/C [5]: 6.02%
viability, T/C [6]: 4.53%
viability, T/C [7]: 2.75%

COc1cc(C)[nH]c(=O)c1CN1CCc2c(Cl)cc(C(OC)C3COC3)c(Cl)c2C1=O (centres undefined) + Cn1nnc2c(C(N)=O)ncn2c1=O
IC50 (curve of first compound, second compound 1 µM): > 10 µM
IC50 (curve of first compound, second compound 3.16 µM): > 10 µM
IC50 (curve of first compound, second compound 10 µM): > 10 µM
IC50 (curve of first compound, second compound 31.6 µM): > 10 µM
IC50 (curve of first compound, second compound 100 µM): > 10 µM
viability, T/C (second compound 1 µM, first compound 0.0316 µM): 91.4%
viability, T/C (second compound 1 µM, first compound 0.1 µM): 103%
viability, T/C (second compound 1 µM, first compound 0.316 µM): 89.9%
viability, T/C (second compound 1 µM, first compound 1 µM): 86.8%
viability, T/C (second compound 1 µM, first compound 3.16 µM): 94%
viability, T/C (second compound 1 µM, first compound 10 µM): 92%
viability, T/C (second compound 3.16 µM, first compound 0.0316 µM): 95.2%
viability, T/C (second compound 3.16 µM, first compound 0.1 µM): 98.8%
viability, T/C (second compound 3.16 µM, first compound 0.316 µM): 99.2%
viability, T/C (second compound 3.16 µM, first compound 1 µM): 105%
viability, T/C (second compound 3.16 µM, first compound 3.16 µM): 90.9%
viability, T/C (second compound 3.16 µM, first compound 10 µM): 97.3%
viability, T/C (second compound 10 µM, first compound 0.0316 µM): 106%
viability, T/C (second compound 10 µM, first compound 0.1 µM): 104%
viability, T/C (second compound 10 µM, first compound 0.316 µM): 99.7%
viability, T/C (second compound 10 µM, first compound 1 µM): 103%
viability, T/C (second compound 10 µM, first compound 3.16 µM): 98.2%
viability, T/C (second compound 10 µM, first compound 10 µM): 102%
viability, T/C (second compound 31.6 µM, first compound 0.0316 µM): 104%
viability, T/C (second compound 31.6 µM, first compound 0.1 µM): 107%
viability, T/C (second compound 31.6 µM, first compound 0.316 µM): 101%
viability, T/C (second compound 31.6 µM, first compound 1 µM): 106%
viability, T/C (second compound 31.6 µM, first compound 3.16 µM): 99%
viability, T/C (second compound 31.6 µM, first compound 10 µM): 105%
viability, T/C (second compound 100 µM, first compound 0.0316 µM): 102%
viability, T/C (second compound 100 µM, first compound 0.1 µM): 98.9%
viability, T/C (second compound 100 µM, first compound 0.316 µM): 99.3%
viability, T/C (second compound 100 µM, first compound 1 µM): 87.1%
viability, T/C (second compound 100 µM, first compound 3.16 µM): 96.4%
viability, T/C (second compound 100 µM, first compound 10 µM): 94.7%

COc1cc(C)[nH]c(=O)c1CN1CCc2c(Cl)cc(C(OC)C3COC3)c(Cl)c2C1=O (centres undefined)
viability, T/C (compound 0.0316 µM): 93.9% and 96.1% and 106%
viability, T/C (compound 0.1 µM): 101% (2×) and 102%
viability, T/C (compound 0.316 µM): 92.7% and 96% and 91.1%
viability, T/C (compound 1 µM): 101% and 94.2% and 103%
viability, T/C (compound 3.16 µM): 97.1% and 89.7% and 101%
viability, T/C (compound 10 µM): 94.5% and 97.7% and 100%
IC50 (curve of compound): > 10 µM

CNCc1ccc(-c2cc(-c3nc(-c4ccc(S(=O)(=O)C(C)C)cc4)cnc3N)on2)cc1
viability, T/C (compound 0.00949 µM): 101% and 97.8% and 106%
viability, T/C (compound 0.03 µM): 108% and 111% and 109%
viability, T/C (compound 0.0949 µM): 98% and 119% and 105%
viability, T/C (compound 0.3 µM): 106% and 107% and 101%
viability, T/C (compound 0.949 µM): 95% and 98.1% and 96.3%
viability, T/C (compound 3 µM): 88.5% and 83.7% and 94%
IC50 (curve of compound): > 3 µM

COc1ccc([C@@H](O)c2cc(-c3ncnc4cc(N5CCOCC5)ccc34)c(F)cc2Cl)nn1 + CC[C@@]1(O)C(=O)OCc2c1cc1n(c2=O)Cc2cc3c(CN(C)C)c(O)ccc3nc2-1
IC50 [1]: > 10 µM
IC50 (curve of first compound, second compound 0.00949 µM): > 10 µM
IC50 (curve of first compound, second compound 0.03 µM): 5.95 µM
IC50 (curve of first compound, second compound 0.0949 µM): 2.63 µM
IC50 (curve of first compound, second compound 0.3 µM): 2.61 µM
viability, T/C [2]: 100%
viability, T/C [3]: 99.6%
viability, T/C [4]: 90.8%
viability, T/C [5]: 82.3%
viability, T/C [6]: 69.2%
viability, T/C [7]: 55.2%
viability, T/C (second compound 0.00949 µM, first compound 0.0316 µM): 98%
viability, T/C (second compound 0.00949 µM, first compound 0.1 µM): 97.1%
viability, T/C (second compound 0.00949 µM, first compound 0.316 µM): 95.5%
viability, T/C (second compound 0.00949 µM, first compound 1 µM): 88.9%
viability, T/C (second compound 0.00949 µM, first compound 3.16 µM): 65.7%
viability, T/C (second compound 0.00949 µM, first compound 10 µM): 52.8%
viability, T/C (second compound 0.03 µM, first compound 0.0316 µM): 93.5%
viability, T/C (second compound 0.03 µM, first compound 0.1 µM): 92.3%
viability, T/C (second compound 0.03 µM, first compound 0.316 µM): 88.1%
viability, T/C (second compound 0.03 µM, first compound 1 µM): 72.5%
viability, T/C (second compound 0.03 µM, first compound 3.16 µM): 58.6%
viability, T/C (second compound 0.03 µM, first compound 10 µM): 43.5%
viability, T/C (second compound 0.0949 µM, first compound 0.0316 µM): 99.8%
viability, T/C (second compound 0.0949 µM, first compound 0.1 µM): 102%
viability, T/C (second compound 0.0949 µM, first compound 0.316 µM): 93.5%
viability, T/C (second compound 0.0949 µM, first compound 1 µM): 70.2%
viability, T/C (second compound 0.0949 µM, first compound 3.16 µM): 46.2%
viability, T/C (second compound 0.0949 µM, first compound 10 µM): 39.5%
viability, T/C (second compound 0.3 µM, first compound 0.0316 µM): 107%
viability, T/C (second compound 0.3 µM, first compound 0.1 µM): 104%
viability, T/C (second compound 0.3 µM, first compound 0.316 µM): 88.8%
viability, T/C (second compound 0.3 µM, first compound 1 µM): 71.9%
viability, T/C (second compound 0.3 µM, first compound 3.16 µM): 43.1%
viability, T/C (second compound 0.3 µM, first compound 10 µM): 37.1%
